Measurements as given in ChEMBL document CHEMBL3102714 (J Med Chem, 2013).
Active and inactive are the calls of the source. No cut-off for these calls is given here. Where a SMILES comes first, the peptide text is derived from it.

How the values were obtained:
[1] = target: T1, Neuronal acetylcholine receptor subunit alpha-7 (Homo sapiens, UniProt P36544); test: Inhibition of alpha7 (unknown origin) nAChR
[2] = target: T2, Neuronal acetylcholine receptor; alpha9/alpha10 (Homo sapiens, UniProt Q9GZZ6+Q9UGM1); test: Inhibition of alpha9alpha10 (unknown origin) nAChR; assay type: protein-complex assay
[3] = target: T3, Neuronal acetylcholine receptor; alpha3/beta4 (Homo sapiens, UniProt P30926+P32297); test: Inhibition of human alpha3beta4 nAChR; assay type: protein-complex assay
[4] = target: T4, Neuronal acetylcholine receptor; alpha3/beta2 (Homo sapiens, UniProt P17787+P32297); test: Inhibition of human alpha3beta2 nAChR; assay type: protein-complex assay
[5] = target: T2, Neuronal acetylcholine receptor; alpha9/alpha10; test: Inhibition of human alpha9alpha10 nAChR; assay type: protein-complex assay
[6] = target: T1, Neuronal acetylcholine receptor subunit alpha-7; test: Inhibition of human alpha7 nAChR
[7] = target: T5, Neuronal acetylcholine receptor; alpha3/beta4 (Rattus norvegicus, UniProt P04757+P12392); test: Inhibition of rat alpha3beta4 nAChR expressed in Xenopus laevis oocytes assessed as inhibition of ACh-induced current after 2 to 4 days by voltage clamp electrophysiology method; assay type: cell-based
[8] = target: Neuronal acetylcholine receptor subunit alpha-7 (Rattus norvegicus) (UniProt Q05941); test: Inhibition of rat alpha7 nAChR expressed in Xenopus laevis assessed as inhibition of ACh-induced current at 10 uM after 2 to 4 days by voltage clamp electrophysiology method
[9] = target: Neuronal acetylcholine receptor; alpha3/beta2 (Rattus norvegicus) (UniProt P04757+P12390); test: Inhibition of rat alpha3beta2 nAChR expressed in Xenopus laevis oocytes assessed as inhibition of ACh-induced current at 10 uM after 2 to 4 days by voltage clamp electrophysiology method; assay type: cell-based
[10] = target: Neuronal acetylcholine receptor; alpha3/beta4 (Rattus norvegicus) (UniProt P04757+P12392); test: Inhibition of rat alpha3beta4 nAChR expressed in Xenopus laevis oocytes assessed as inhibition of ACh-induced current at 1 uM after 2 to 4 days by voltage clamp electrophysiology method; assay type: cell-based
[11] = target: Nicotinic acetylcholine receptor alpha9/alpha10 (Rattus norvegicus) (UniProt P43144+Q9JLB5); test: Inhibition of rat alpha9alpha10 nAChR expressed in Xenopus laevis oocytes assessed as inhibition of ACh-induced current at 10 uM after 2 to 4 days by voltage clamp electrophysiology method; assay type: cell-based
[12] = target: Neuronal acetylcholine receptor; alpha4/beta4 (Rattus norvegicus) (UniProt P09483+P12392); test: Inhibition of rat alpha4beta4 nAChR expressed in Xenopus laevis oocytes assessed as inhibition of ACh-induced current at 10 uM after 2 to 4 days by voltage clamp electrophysiology method; assay type: cell-based
[13] = target: T6, Nicotinic acetylcholine receptor alpha6/alpha3/beta2/beta3 (Rattus norvegicus, UniProt P04757+P12390+P12391+P43143); test: Inhibition of rat alpha6/alpha3beta2beta3 nAChR expressed in Xenopus laevis oocytes assessed as inhibition of ACh-induced current by voltage clamp electrophysiology method; assay type: cell-based
[14] = target: T3, Neuronal acetylcholine receptor; alpha3/beta4; test: Inhibition of alpha3beta4 nAChR (unknown origin) expressed in Xenopus laevis oocytes by two-electrode voltage clamp method; assay type: cell-based
[15] = target: T4, Neuronal acetylcholine receptor; alpha3/beta2; test: Inhibition of alpha3beta2 nAChR (unknown origin) expressed in Xenopus laevis oocytes at 1uM by two-electrode voltage clamp method; assay type: cell-based
[16] = target: T1, Neuronal acetylcholine receptor subunit alpha-7; test: Inhibition of alpha7 nAChR (unknown origin) expressed in Xenopus laevis oocytes at 1 uM by two-electrode voltage clamp method; assay type: cell-based
[17] = target: T1, Neuronal acetylcholine receptor subunit alpha-7; test: Inhibition of alpha7 nAChR (unknown origin) expressed in Xenopus laevis oocytes by two-electrode voltage clamp method; assay type: cell-based
[18] = target: T3, Neuronal acetylcholine receptor; alpha3/beta4; test: Inhibition of alpha3beta4 nAChR (unknown origin) expressed in Xenopus laevis oocytes at 1uM by two-electrode voltage clamp method; assay type: cell-based
[19] = target: T4, Neuronal acetylcholine receptor; alpha3/beta2; test: Inhibition of alpha3beta2 nAChR (unknown origin) expressed in Xenopus laevis oocytes by two-electrode voltage clamp method; assay type: cell-based
[20] = target: Neuronal acetylcholine receptor; alpha9/alpha10 (Homo sapiens) (UniProt Q9UGM1+Q9GZZ6); test: Inhibition of alpha9alpha10 nAChR (unknown origin) expressed in Xenopus laevis oocytes at 1 uM by voltage clamp electrophysiology method; assay type: cell-based
[21] = target: Nicotinic acetylcholine receptor alpha9/alpha10 (Rattus norvegicus, UniProt P43144+Q9JLB5); test: Inhibition of recombinant rat alpha9alpha10 nAChR expressed in Xenopus laevis oocytes assessed as inhibition of ACh-induced current by voltage clamp electrophysiology method; assay type: cell-based
[22] = target: Nicotinic acetylcholine receptor alpha6/alpha3/beta4 (Rattus norvegicus, UniProt P04757+P12392+P43143); test: Inhibition of rat alpha6/alpha3beta4 nAChR expressed in Xenopus oocytes assessed as inhibition of ACh-induced current by voltage clamp electrophysiology method; assay type: cell-based
[23] = target: Neuronal acetylcholine receptor; alpha4/beta4 (Rattus norvegicus, UniProt P09483+P12392); test: Inhibition of rat alpha4beta4 nAChR expressed in Xenopus oocytes assessed as inhibition of ACh-induced current by voltage clamp electrophysiology method; assay type: cell-based
[24] = target: T6, Nicotinic acetylcholine receptor alpha6/alpha3/beta2/beta3; test: Inhibition of rat alpha6/alpha3beta2beta3 nAChR expressed in Xenopus oocytes assessed as inhibition of ACh-induced current by voltage clamp electrophysiology method; assay type: cell-based
[25] = target: Neuronal acetylcholine receptor; alpha2/beta2 (Rattus norvegicus, UniProt P12389+P12390); test: Inhibition of rat alpha2beta2 nAChR expressed in Xenopus oocytes assessed as inhibition of ACh-induced current by voltage clamp electrophysiology method; assay type: cell-based
[26] = target: Neuronal acetylcholine receptor; alpha2/beta4 (Rattus norvegicus, UniProt P12389+P12392); test: Inhibition of rat alpha2beta4 nAChR expressed in Xenopus oocytes assessed as inhibition of ACh-induced current by voltage clamp electrophysiology method; assay type: cell-based
[27] = target: Neuronal acetylcholine receptor; alpha3/beta2 (Rattus norvegicus, UniProt P04757+P12390); test: Inhibition of rat alpha3beta2 nAChR expressed in Xenopus oocytes assessed as inhibition of ACh-induced current by voltage clamp electrophysiology method; assay type: cell-based
[28] = target: T5, Neuronal acetylcholine receptor; alpha3/beta4; test: Inhibition of rat alpha3beta4 nAChR expressed in Xenopus oocytes assessed as inhibition of ACh-induced current by voltage clamp electrophysiology method; assay type: cell-based
[29] = target: Neuronal acetylcholine receptor subunit alpha-7 (Rattus norvegicus, UniProt Q05941); test: Inhibition of rat alpha7 nAChR expressed in Xenopus oocytes assessed as inhibition of ACh-induced current by voltage clamp electrophysiology method; assay type: cell-based

T1 sequence (P36544 whole entry): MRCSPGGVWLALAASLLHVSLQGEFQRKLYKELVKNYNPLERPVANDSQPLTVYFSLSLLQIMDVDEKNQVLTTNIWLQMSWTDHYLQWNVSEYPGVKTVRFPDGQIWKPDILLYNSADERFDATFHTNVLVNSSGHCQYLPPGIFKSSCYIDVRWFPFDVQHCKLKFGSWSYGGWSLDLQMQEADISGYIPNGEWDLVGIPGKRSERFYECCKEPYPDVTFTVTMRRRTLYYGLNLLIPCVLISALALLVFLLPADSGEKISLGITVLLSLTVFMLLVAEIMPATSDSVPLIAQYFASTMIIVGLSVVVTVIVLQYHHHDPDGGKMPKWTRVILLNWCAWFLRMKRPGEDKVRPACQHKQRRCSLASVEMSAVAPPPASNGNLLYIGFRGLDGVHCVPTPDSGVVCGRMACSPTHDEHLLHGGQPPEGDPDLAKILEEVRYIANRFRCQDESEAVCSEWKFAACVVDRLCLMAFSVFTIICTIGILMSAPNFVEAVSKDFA
T2 sequence (Q9UGM1 whole entry): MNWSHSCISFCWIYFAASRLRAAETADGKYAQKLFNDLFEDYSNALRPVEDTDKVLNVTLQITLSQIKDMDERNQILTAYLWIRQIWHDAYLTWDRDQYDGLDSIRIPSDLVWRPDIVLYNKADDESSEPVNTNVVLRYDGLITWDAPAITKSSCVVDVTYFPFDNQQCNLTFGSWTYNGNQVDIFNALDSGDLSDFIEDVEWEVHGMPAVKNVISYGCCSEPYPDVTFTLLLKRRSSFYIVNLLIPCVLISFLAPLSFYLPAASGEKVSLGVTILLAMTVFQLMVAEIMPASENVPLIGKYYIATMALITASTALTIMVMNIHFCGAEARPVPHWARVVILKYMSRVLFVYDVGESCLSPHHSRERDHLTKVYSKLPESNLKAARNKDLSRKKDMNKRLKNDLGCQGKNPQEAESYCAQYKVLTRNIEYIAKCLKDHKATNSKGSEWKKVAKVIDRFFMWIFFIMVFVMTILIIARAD
T2 sequence (Q9GZZ6 whole entry): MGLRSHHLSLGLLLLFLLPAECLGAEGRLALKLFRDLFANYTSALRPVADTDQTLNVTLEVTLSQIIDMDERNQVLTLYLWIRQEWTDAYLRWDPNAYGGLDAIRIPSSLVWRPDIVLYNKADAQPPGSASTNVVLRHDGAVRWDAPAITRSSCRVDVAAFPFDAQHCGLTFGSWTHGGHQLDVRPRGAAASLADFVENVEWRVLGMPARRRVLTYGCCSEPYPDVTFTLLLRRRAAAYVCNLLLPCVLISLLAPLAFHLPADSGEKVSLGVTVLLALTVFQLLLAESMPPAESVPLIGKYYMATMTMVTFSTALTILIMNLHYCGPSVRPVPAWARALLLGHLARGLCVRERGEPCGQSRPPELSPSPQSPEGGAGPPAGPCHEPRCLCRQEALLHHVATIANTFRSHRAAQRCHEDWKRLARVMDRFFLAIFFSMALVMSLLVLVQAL
T6 sequence (P04757 whole entry): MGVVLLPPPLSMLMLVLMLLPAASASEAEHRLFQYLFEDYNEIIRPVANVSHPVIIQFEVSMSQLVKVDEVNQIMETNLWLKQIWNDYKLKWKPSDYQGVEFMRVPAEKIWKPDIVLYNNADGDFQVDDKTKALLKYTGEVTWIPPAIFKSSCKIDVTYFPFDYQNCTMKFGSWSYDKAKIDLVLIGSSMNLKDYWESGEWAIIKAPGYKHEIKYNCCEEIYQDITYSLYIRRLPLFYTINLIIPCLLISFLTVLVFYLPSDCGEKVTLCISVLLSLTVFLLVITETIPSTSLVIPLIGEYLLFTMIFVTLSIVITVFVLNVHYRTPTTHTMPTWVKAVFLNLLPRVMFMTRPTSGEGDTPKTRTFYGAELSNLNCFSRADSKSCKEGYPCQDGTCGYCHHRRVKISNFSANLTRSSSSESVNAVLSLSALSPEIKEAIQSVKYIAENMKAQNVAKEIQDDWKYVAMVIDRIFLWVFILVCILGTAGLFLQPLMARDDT
T6 sequence (P12390 whole entry): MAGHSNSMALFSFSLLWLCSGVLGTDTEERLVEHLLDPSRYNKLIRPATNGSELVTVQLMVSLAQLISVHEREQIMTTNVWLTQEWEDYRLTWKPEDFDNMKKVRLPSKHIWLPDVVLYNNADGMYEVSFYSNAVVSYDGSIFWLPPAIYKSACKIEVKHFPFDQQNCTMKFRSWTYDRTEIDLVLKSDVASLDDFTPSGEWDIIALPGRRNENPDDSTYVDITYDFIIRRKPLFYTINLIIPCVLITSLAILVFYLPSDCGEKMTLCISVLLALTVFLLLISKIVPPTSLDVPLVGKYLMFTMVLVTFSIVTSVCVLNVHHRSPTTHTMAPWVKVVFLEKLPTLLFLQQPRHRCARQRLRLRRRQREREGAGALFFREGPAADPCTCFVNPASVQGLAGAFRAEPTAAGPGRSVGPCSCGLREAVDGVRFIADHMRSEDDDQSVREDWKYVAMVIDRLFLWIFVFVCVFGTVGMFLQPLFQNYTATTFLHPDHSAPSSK
T6 sequence (P12391 whole entry): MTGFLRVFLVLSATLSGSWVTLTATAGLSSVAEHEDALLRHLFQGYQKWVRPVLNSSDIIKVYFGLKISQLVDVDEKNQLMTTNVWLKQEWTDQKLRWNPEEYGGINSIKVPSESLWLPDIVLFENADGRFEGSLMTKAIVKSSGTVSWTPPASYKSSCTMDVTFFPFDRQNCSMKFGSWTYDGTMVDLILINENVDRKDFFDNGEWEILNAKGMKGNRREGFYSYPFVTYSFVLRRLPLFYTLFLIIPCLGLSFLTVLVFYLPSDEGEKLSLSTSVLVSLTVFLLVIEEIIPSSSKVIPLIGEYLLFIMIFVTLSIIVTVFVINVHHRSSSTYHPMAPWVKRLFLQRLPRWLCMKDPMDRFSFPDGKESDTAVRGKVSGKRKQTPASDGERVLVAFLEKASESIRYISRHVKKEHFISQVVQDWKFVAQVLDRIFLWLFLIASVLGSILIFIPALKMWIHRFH
T6 sequence (P43143 whole entry): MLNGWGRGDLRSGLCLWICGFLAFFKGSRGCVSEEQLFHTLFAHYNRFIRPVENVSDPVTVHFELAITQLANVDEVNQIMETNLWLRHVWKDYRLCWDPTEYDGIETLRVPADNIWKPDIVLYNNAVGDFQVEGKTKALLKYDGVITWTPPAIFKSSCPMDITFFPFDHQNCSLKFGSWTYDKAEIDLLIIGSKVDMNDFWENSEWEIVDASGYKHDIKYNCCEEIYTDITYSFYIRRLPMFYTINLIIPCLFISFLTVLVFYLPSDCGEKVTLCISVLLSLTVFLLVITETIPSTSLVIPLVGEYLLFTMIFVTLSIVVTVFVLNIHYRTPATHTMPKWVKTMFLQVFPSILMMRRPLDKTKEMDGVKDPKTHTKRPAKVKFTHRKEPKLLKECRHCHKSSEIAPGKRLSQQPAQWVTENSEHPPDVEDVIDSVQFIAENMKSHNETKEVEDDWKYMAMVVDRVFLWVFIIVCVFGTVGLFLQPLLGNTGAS
T5 sequence (P04757 whole entry): as the sequence (P04757 whole entry) above
T5 sequence (P12392 whole entry): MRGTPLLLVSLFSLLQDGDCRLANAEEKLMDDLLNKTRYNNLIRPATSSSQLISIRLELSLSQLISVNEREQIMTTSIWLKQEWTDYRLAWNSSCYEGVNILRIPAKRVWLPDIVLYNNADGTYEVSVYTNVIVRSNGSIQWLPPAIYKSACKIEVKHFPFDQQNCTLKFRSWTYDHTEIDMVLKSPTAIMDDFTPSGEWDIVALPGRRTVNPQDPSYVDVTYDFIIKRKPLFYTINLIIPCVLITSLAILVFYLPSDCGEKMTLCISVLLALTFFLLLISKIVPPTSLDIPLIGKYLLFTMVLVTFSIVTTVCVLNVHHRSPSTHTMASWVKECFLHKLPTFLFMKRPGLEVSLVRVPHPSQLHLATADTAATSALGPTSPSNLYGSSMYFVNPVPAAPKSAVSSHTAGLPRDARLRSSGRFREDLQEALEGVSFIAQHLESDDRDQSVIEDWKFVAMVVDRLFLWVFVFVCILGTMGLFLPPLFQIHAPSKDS
T3 sequence (P30926 whole entry): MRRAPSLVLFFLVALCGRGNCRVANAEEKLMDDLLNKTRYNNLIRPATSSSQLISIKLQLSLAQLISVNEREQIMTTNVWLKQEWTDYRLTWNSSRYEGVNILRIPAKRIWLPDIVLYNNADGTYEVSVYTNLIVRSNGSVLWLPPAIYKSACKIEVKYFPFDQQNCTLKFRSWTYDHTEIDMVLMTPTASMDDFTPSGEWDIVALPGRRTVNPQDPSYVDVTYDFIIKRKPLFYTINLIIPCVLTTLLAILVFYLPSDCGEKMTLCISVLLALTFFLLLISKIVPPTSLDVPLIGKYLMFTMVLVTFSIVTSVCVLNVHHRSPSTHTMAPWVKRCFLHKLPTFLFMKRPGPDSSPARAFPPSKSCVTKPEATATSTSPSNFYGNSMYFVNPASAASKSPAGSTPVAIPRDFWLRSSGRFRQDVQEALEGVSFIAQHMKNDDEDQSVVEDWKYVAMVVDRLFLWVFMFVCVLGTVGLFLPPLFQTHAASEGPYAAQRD
T3 sequence (P32297 whole entry): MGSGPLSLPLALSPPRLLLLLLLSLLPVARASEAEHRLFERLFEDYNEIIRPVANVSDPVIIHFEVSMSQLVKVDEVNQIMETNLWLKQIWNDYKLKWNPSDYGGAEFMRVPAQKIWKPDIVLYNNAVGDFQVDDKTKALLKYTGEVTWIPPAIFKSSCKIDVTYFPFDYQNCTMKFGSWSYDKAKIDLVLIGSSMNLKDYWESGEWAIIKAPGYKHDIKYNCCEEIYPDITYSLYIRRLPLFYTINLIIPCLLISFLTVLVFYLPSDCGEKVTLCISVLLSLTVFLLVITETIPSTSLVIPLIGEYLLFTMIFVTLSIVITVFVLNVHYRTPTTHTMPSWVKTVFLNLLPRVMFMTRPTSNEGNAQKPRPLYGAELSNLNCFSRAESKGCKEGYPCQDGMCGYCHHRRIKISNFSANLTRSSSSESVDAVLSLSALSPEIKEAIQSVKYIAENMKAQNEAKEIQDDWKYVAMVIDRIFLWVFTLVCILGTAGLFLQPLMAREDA

Compound: NCC(=O)N[C@H]1CSSC[C@@H]2NC(=O)[C@H](CCCN=C(N)N)NC(=O)[C@@H]3CCCN3C(=O)[C@H](CC(=O)O)NC(=O)[C@H](CO)NC(=O)[C@H](CSSC[C@@H](C(=O)N[C@@H](CCCN=C(N)N)C(N)=O)NC(=O)[C@H](CCCN=C(N)N)NC(=O)[C@H](Cc3ccc(O)cc3)NC(=O)[C@H](CCCN=C(N)N)NC2=O)NC1=O
- IC50 [1]: 4.7 µM
- IC50 [2]: 5.2 nM

Compound: C[C@@H]1NC(=O)[C@@H]2CSSC[C@H](NC(=O)CN)C(=O)N[C@@H](CSSC[C@@H](C(N)=O)NC(=O)[C@H](CCCNC(=N)N)NC(=O)[C@H](Cc3c[nH]c4ccccc34)NC1=O)C(=O)N[C@@H](CO)C(=O)N[C@@H](CC(=O)O)C(=O)N1CCC[C@H]1C(=O)N[C@@H](CCCNC(=N)N)C(=O)N2
- IC50 [3]: 3.39 µM
- IC50 [4]: 41 nM
- IC50 [5]: 2000 nM
- IC50 [6]: 595 nM

Compound: C[C@@H]1NC(=O)[C@H](Cc2ccccc2)NC(=O)[C@@H]2CSSC[C@@H](NC(=O)CN)C(=O)N[C@@H](CSSC[C@@H](C(N)=O)NC(=O)[C@H](CC(=O)O)NC(=O)[C@@H]3CCCN3C(=O)[C@H](CC(N)=O)NC(=O)[C@H]([C@@H](C)O)NC1=O)C(=O)N[C@@H](CO)C(=O)N[C@@H](Cc1ccc(O)cc1)C(=O)N1CCC[C@H]1C(=O)N1CCC[C@H]1C(=O)N2
- IC50 [7]: 750 nM

Compound: CC[C@H](C)[C@@H]1NC(=O)[C@@H]2CCCN2C(=O)[C@H](CO)NC(=O)[C@H](CCSC)NC(=O)[C@H](C)NC(=O)[C@H](CO)NC(=O)[C@@H]2CSSC[C@H](NC(=O)CN)C(=O)N[C@@H](CSSC[C@@H](C(N)=O)NC1=O)C(=O)N[C@@H](CO)C(=O)N[C@@H](Cc1cnc[nH]1)C(=O)N1CCC[C@H]1C(=O)N[C@@H](C(C)C)C(=O)N2
- inhibition [8]: inactive
- inhibition [9]: inactive
- inhibition [10]: Active
- inhibition [11]: inactive
- inhibition [12]: inactive

Compound: [H][C@@]12CCCN1C(=O)[C@H](Cc1cnc[nH]1)NC(=O)[C@H](CCCCN)NC(=O)[C@H](CC(N)=O)NC(=O)[C@H](CCCNC(=N)N)NC(=O)[C@]1([H])CSSC[C@H](NC(=O)CN)C(=O)N[C@@]([H])(CSSC[C@@H](C(N)=O)NC(=O)[C@H](CC(C)C)NC(=O)[C@H](CC(=O)O)NC2=O)C(=O)N[C@@H](CO)C(=O)N[C@@H](CC(=O)O)C(=O)N2CCC[C@@]2([H])C(=O)N2CCC[C@@]2([H])C(=O)N1 (HELM PEPTIDE1{G.C.C.S.D.P.P.C.R.N.K.H.P.D.L.C.[am]}$PEPTIDE1,PEPTIDE1,2:R3-8:R3|PEPTIDE1,PEPTIDE1,3:R3-16:R3$$$V2.0)
- IC50 [13]: 28.4 nM

Compound: CC[C@H](C)[C@@H]1NC(=O)[C@H](Cc2cnc[nH]2)NC(=O)[C@@H]2CCCN2C(=O)[C@H](CC(N)=O)NC(=O)[C@H](CC(N)=O)NC(=O)[C@H](C(C)C)NC(=O)[C@H](CC(N)=O)NC(=O)[C@@H]2CSSC[C@H](NC(=O)CN)C(=O)N[C@@H](CSSC[C@@H](C(N)=O)NC1=O)C(=O)N[C@@H](CO)C(=O)N[C@@H](Cc1cnc[nH]1)C(=O)N1CCC[C@H]1C(=O)N[C@@H](C)C(=O)N2 (HELM PEPTIDE1{G.C.C.S.H.P.A.C.N.V.N.N.P.H.I.C.[am]}$PEPTIDE1,PEPTIDE1,2:R3-8:R3|PEPTIDE1,PEPTIDE1,3:R3-16:R3$$$V2.0)
- IC50 [14]: 97 nM
- inhibition [15]: Active
- inhibition [16]: Active
- IC50 [17]: 103 nM
- inhibition [18]: Active
- IC50 [19]: 33 nM
- inhibition [20]: 22%

Compound: CC(C)C[C@@H]1NC(=O)[C@H](CCC(=O)O)NC(=O)[C@@H]2CCCN2C(=O)[C@H](Cc2cnc[nH]2)NC(=O)[C@H](CC(N)=O)NC(=O)[C@H](C(C)C)NC(=O)[C@H](CO)NC(=O)[C@@H]2CSSC[C@H](NC(=O)CN)C(=O)N[C@@H](CSSC[C@@H](C(N)=O)NC1=O)C(=O)N[C@@H](CO)C(=O)N[C@@H](Cc1cnc[nH]1)C(=O)N1CCC[C@H]1C(=O)N[C@@H](C)C(=O)N2 (HELM PEPTIDE1{G.C.C.S.H.P.A.C.S.V.N.H.P.E.L.C.[am]}$PEPTIDE1,PEPTIDE1,2:R3-8:R3|PEPTIDE1,PEPTIDE1,3:R3-16:R3$$$V2.0)
- IC50 [21]: 6.9 nM

Compound: [H][C@@]12CCCN1C(=O)[C@]1([H])CCCN1C(=O)[C@]([H])([C@@H](C)O)NC(=O)[C@H](CO)NC(=O)[C@]1([H])CSSC[C@@H](C(N)=O)NC(=O)[C@H](Cc3ccc(O)cc3)NC(=O)[C@H](CC(C)C)NC(=O)[C@H](C(C)C)NC(=O)[C@H](C)NC(=O)[C@]([H])(CSSC[C@H](NC(=O)CN)C(=O)N1)NC2=O (HELM PEPTIDE1{G.C.C.S.T.P.P.C.A.V.L.Y.C.[am]}$PEPTIDE1,PEPTIDE1,2:R3-8:R3|PEPTIDE1,PEPTIDE1,3:R3-13:R3$$$V2.0)
- IC50 [22]: 1.54 nM
- IC50 [23]: 69.9 nM
- IC50 [24]: 0.26 nM
- IC50 [25]: 800 nM
- IC50 [26]: 121 nM
- IC50 [27]: 5.72 nM
- IC50 [28]: 27.7 nM
- IC50 [29]: 272 nM
